In assay [1] the target is T1, Zea mays EPSPS variant G-W at positions 103-107 (EPSPS-TGPW; T103G P107W) (Zea mays, UniProt O24566, P106W/T102G).
T1 sequence (O24566 with tags, fused parts or gaps T102G/P106W): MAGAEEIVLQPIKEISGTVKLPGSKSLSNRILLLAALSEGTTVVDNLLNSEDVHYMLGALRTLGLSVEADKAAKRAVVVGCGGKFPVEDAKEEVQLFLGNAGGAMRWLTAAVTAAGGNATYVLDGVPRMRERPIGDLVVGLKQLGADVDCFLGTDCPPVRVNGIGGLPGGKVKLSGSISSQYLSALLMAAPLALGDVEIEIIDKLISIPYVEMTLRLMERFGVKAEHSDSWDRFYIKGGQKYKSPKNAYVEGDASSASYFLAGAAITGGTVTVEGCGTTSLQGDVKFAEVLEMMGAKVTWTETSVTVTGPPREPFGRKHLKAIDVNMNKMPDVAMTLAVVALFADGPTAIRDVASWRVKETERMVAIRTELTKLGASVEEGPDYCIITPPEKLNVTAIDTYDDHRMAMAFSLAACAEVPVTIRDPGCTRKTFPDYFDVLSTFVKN
Description: EPSPS substrate saturation kinetics, maize variant 103G 107W (EPSPS-TGPW). Type of assay: biochemical. The procedure:
(§1) EPSPS activity was determined by quantifying the phosphate generated from the EPSPS reaction. Release of inorganic phosphate was coupled to reaction with 2-amino-6-mercapto-7-methylpurine ribonucleoside, catalyzed by purine-nucleoside phosphorylase (M R Webb, Proc. Natl. Acad. Sci. 89:4884-4887, 1992). The absorbance change that occurs was monitored at 360 nm, where the extinction is 11,200 M^−1 cm^−1, with a Spectramax plate reader (Molecular Devices). To determine kinetic parameters, the varied substrate was present at seven concentrations (the eighth being the blank, containing no substrate) ranging from 4 to 400 uM and the unvaried substrate present at saturation. Six microliters of 50-fold concentrated stock solutions of the varied substrate were placed in the wells of the 96-well assay plate and reactions were started with the addition of a mixture containing 25 mM Hepes, pH 7, 100 mM KCl, 0.3 mM 2-amino-6-mercapto-7-methylpurine ribonucleosde, 1 uM (1 unit/ml) purine-nucleoside phosphorylase (Sigma N8264) and 200 uM of the non-varied substrate. Reactions were monitored with a Spectramax plate reader. The Michaelis-Menten kinetics protocol of the Spectramax software was customized for the substrate concentrations used. The software returns values of KM and Vmax using the Lineweaver-Burke transformation of the Michaelis-Menten equation. To determine kcat, Vmax (uM/min) was divided by the enzyme concentration (uM). […] KI was then calculated from the following form of the Michaelis-Menten equation for competitive inhibition: KI=KM[I]/(KM app−KM) KM approximates the dissociation constant of the enzyme-substrate complex while kcat is the rate of conversion of substrate to product when the substrate concentration is saturating. kcat/KM is a widely accepted parameter for catalytic efficiency when substrate concentration is low (˜KM). […] The parameter kcat/KM×KI is used to quantify both catalytic efficiency and insensitivity and thus the overall fitness of the enzyme.
(§2) NNK-enabled saturation mutagenesis was performed at positions 103 and 107 in the maize EPSPS sequence, and transformed BL21 DE3 cells were screened as described above.

Assay [2] relates to Zea mays EPSPS variant G-W at positions 103-107 (EPSPS-TGPW; T103G P107W). The description is as above. Type of assay: biochemical. The procedure: as §1, §2
The target of assay [3] is T2, Zea mays EPSPS variant G102A (Zea mays, UniProt O24566, G101A).
T2 sequence (O24566 with tags, fused parts or gaps G101A): T1 sequence (O24566 with tags, fused parts or gaps T102G/P106W) with G102A, G103T, W107P
Briefly: EPSPS substrate saturation kinetics, G102A.

Setting [4] is: PEP as substrate, glyphosate as inhibitor.

Structures are written as SMILES. Positions count from the first letter of the chain named.

Regarding `C=C(OP(=O)(O)O)C(=O)O` [PEP, phosphoenolpyruvate], in assay [1] (PEP varied), the kcat turned out to be 379. Moreover, the “catalytic efficiency (kcat/KM) relative to native maize EPSPS” value in assay [2] (PEP) stood at 5%. In assay [2] (relative to native maize EPSPS), the “higher KM for PEP” value stood at 5 fold and the lower kcat is reported as 4 fold. Moreover, the kcat/KM in assay [3] (PEP) turned out to be 2.2 min^−1uM^−1. Further, the kcat in assay [3] (PEP varied) worked out at 11.6 s⁻¹.
Consider `O=C(O)CNCP(=O)(O)O` [glyphosate, N-phosphonomethylglycine], for which the inhibitory constant (Ki) in assay [1] is 403 µM; in assay [3] (KI (glyphosate), competitive with PEP), 2290 µM; in assay [3] (Ki, substrate saturation, Zm-G102A), 1340 µM. Further, the “(kcat/KM)*KI” value in assay [1] (setting [4]) stood at 1862; in assay [3] (setting [4]) it was 5137; in assay [3] (substrate saturation, Zm-G102A), 2820. In addition, the “less sensitive to glyphosate” value in assay [2] (relative to native maize EPSPS) was “about 3,000 fold”.

These data come from US11549123B2, “Plant EPSP synthases and methods of use” (PIONEER HI-BRED INTERNATIONAL, INC., priority 2015, dated 2023).
